From US20230107039A1, “SOFT CHEWABLE FORMED BODY FOR THE ADMINISTRATION TO ANIMALS” (Bayer Animal Health GmbH, priority 2020, published 2023)

Test: Solubility in a mixture of water and glycerol
Assay type: physicochemical
Settings: experimental studies, no figures given

Structure (SMILES): O=C(C1CCCCC1)N1CC(=O)N2CCc3ccccc3C2C1 (racemic) [praziquantel, (RS)-2-(Cyclohexylcarbonyl)-2,3,4,6,7,11b-hexahydro-1H-pyrazino[2,1-a]isochinoline-4-on]
- solubility in a mixture of water and glycerol: high solubility
